Reference: patent US11555032B2, “Isoxazole derivatives as FXR agonists and methods of use thereof” (Enanta Pharmaceuticals, Inc., priority 2019, dated 2023)

target: T1, human FXR (NR1H4) (Homo sapiens, UniProt Q96RI1); assay: Human FXR (NRIH4) Assay, luciferase reporter; format: cell-based; settings: CHO reporter cells expressing human NR1H4, luciferase, 22 hours incubation
T1 construct: host or cells: CHO (Chinese hamster ovary) reporter cells
T1 sequence (Q96RI1 1-486): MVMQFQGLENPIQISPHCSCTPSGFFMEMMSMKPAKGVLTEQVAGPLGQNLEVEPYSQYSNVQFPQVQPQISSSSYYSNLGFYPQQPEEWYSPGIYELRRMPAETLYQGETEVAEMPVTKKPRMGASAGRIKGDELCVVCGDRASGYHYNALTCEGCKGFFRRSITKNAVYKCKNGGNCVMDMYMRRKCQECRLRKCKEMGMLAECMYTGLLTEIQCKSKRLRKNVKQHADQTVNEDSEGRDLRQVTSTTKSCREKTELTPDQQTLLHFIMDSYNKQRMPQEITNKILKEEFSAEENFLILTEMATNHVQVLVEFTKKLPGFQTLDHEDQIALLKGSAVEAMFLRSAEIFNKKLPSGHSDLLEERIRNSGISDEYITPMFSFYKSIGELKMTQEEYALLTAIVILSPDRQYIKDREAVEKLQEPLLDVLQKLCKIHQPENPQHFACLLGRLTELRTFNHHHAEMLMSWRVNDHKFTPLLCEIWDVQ

**Q.** With `O=C(O)c1cc(F)c2nc(NC3C4CCC3CC(NCc3c(-c5ccccc5OC(F)(F)F)noc3C3CC3)C4)sc2c1` (stereo not drawn) [Example 16] as the compound, how does the EC50 read?
**A.** 25 to 500 nM

**Q.** `O=C(O)c1ccc2c(c1)CN(C1C3CCC1CC(OCc1c(-c4c(Cl)cccc4Cl)noc1C1CC1)C3)C2` (stereo not drawn) [Example 17] was tested. Which EC50 did it give?
**A.** 25 to 500 nM

**Q.** How did the EC50 turn out when `CC(C)Oc1cc(C(=O)O)cc2sc(OC3C4CCC3CC(OCc3c(-c5ccccc5OC(F)(F)F)noc3C3CC3)C4)nc12` (stereo not drawn) [Example 18] was run?
**A.** 25 to 500 nM

**Q.** How did the EC50 turn out when `FC(F)(F)Oc1ccccc1-c1noc(C2CC2)c1COC1CC2CCC(C1)C2Nc1cnc2cc(-c3nnn[nH]3)ccc2n1` (stereo not drawn) [Example 25] was run?
**A.** 25 to 500 nM

**Q.** Which EC50 does the source give for `O=C(O)c1cc(F)cc2ncc(NC3C4CCC3CC(OCc3c(-c5ccccc5OC(F)(F)F)noc3C3CC3)C4)nc12` (stereo not drawn) [Example 26] here?
**A.** > 500 nM

**Q.** How did the EC50 turn out when `N#Cc1cc(C2CC2)cc2nc(NC3C4CCC3CC(OCc3c(-c5ccccc5OC(F)(F)F)noc3C3CC3)C4)cnc12` (stereo not drawn) [Example 27] was run?
**A.** 25 to 500 nM

**Q.** How did the EC50 turn out when `FC(F)(F)Oc1ccccc1-c1noc(C2CC2)c1COC1CC2CCC(C1)C2Nc1cnc2c(-c3nnn[nH]3)cc(C3CC3)cc2n1` (stereo not drawn) [Example 28] was run?
**A.** < 25 nM

**Q.** For `O=C(O)c1ccc2nc(NC3C4CCC3CC(OCc3c(-c5ccccc5OC(F)(F)F)noc3C3CC3)C4)cnc2c1` (stereo not drawn) [Example 29], which EC50 is on record?
**A.** < 25 nM

**Q.** With `O=C(O)c1cc(C2CC2)cc2nc(NC3C4CCC3CC(OCc3c(-c5ccccc5OC(F)(F)F)noc3C3CC3)C4)cnc12` (stereo not drawn) [Example 30] as the compound, how does the EC50 read?
**A.** < 25 nM

**Q.** For `O=C(O)c1ccc2ccc(NC3C4CCC3CC(OCc3c(-c5ccccc5OC(F)(F)F)noc3C3CC3)C4)nc2c1` (stereo not drawn) [Example 31], which EC50 is on record?
**A.** 25 to 500 nM

**Q.** Which EC50 does the source give for `Fc1cc(-c2nnn[nH]2)c2ncc(NC3C4CCC3CC(OCc3c(-c5ccccc5OC(F)(F)F)noc3C3CC3)C4)nc2c1` (stereo not drawn) [Example 32] here?
**A.** < 25 nM

**Q.** Which EC50 does the source give for `CC1(S(=O)(=O)NC(=O)c2cccc3nc(NC4C5CCC4CC(OCc4c(-c6ccccc6OC(F)(F)F)noc4C4CC4)C5)cnc23)CC1` (stereo not drawn) [Example 33] here?
**A.** < 25 nM

**Q.** For `O=C(NS(=O)(=O)C1CC1)c1cccc2nc(NC3C4CCC3CC(OCc3c(-c5ccccc5OC(F)(F)F)noc3C3CC3)C4)cnc12` (stereo not drawn) [Example 34], which EC50 is on record?
**A.** < 25 nM

**Q.** With `N#Cc1ccc2nc(NC3C4CCC3CC(OCc3c(-c5ccccc5OC(F)(F)F)noc3C3CC3)C4)cnc2c1` (stereo not drawn) [Example 35] as the compound, how does the EC50 read?
**A.** < 25 nM

**Q.** For `O=C(O)c1cc(C2CC2)c2nc(NC3C4CCC3CC(OCc3c(-c5ccccc5OC(F)(F)F)noc3C3CC3)C4)sc2c1` (stereo not drawn) [Example 36], which EC50 is on record?
**A.** < 25 nM

**Q.** With `O=C(O)c1cc(OC(F)(F)F)c2nc(NC3C4CCC3CC(OCc3c(-c5ccccc5OC(F)(F)F)noc3C3CC3)C4)sc2c1` (stereo not drawn) [Example 37] as the compound, how does the EC50 read?
**A.** < 25 nM

**Q.** How did the EC50 turn out when `N#Cc1cc(C2CC2)c2nc(NC3C4CCC3CC(OCc3c(-c5ccccc5OC(F)(F)F)noc3C3CC3)C4)sc2c1` (stereo not drawn) [Example 38] was run?
**A.** 25 to 500 nM

**Q.** With `O=C(O)c1cc(F)cc2nc(NC3C4CCC3CC(OCc3c(-c5ccccc5OC(F)(F)F)noc3C3CC3)C4)cnc12` (stereo not drawn) [Example 39] as the compound, how does the EC50 read?
**A.** < 25 nM

**Q.** `N#Cc1cc(F)cc2nc(NC3C4CCC3CC(OCc3c(-c5ccccc5OC(F)(F)F)noc3C3CC3)C4)cnc12` (stereo not drawn) [Example 40] was tested. Which EC50 did it give?
**A.** < 25 nM

**Q.** How did the EC50 turn out when `O=C(O)c1ccc2nc(NC3C4CCC3CC(OCc3c(-c5ccccc5OC(F)(F)F)noc3C3CC3)C4)cnc2c1` (stereo not drawn) [Example 41] was run?
**A.** < 25 nM

**Q.** With `O=C(O)c1cc(F)c2nc(S(=O)(=O)C3C4CCC3CC(OCc3c(-c5ccccc5OC(F)(F)F)noc3C3CC3)C4)sc2c1` (stereo not drawn) [Example 45] as the compound, how does the EC50 read?
**A.** 25 to 500 nM

**Q.** Which EC50 does the source give for `FC(F)(F)Oc1ccccc1-c1noc(C2CC2)c1COC1CC2CCC(C1)C2Nc1cnc2c(-c3nnn[nH]3)cccc2n1` (stereo not drawn) [Example 46] here?
**A.** < 25 nM

**Q.** Which EC50 does the source give for `N#Cc1cccc2ncc(NC3C4CCC3CC(OCc3c(-c5ccccc5OC(F)(F)F)noc3C3CC3)C4)nc12` (stereo not drawn) [Example 47] here?
**A.** 25 to 500 nM

**Q.** How did the EC50 turn out when `N#Cc1cccc2nc(NC3C4CCC3CC(OCc3c(-c5ccccc5OC(F)(F)F)noc3C3CC3)C4)cnc12` (stereo not drawn) [Example 48] was run?
**A.** < 25 nM
